US10912756B2, “Method for the treatment of human melanoma” (UNIWERSYTET JAGIELLONSKI, priority 2017, dated 2021)
Converted amounts (≈) assume the structure as drawn.

Assays:
ovarian cancer = conditions: cited from earlier work
lung cancer = conditions: cited from earlier work
breast cancer = conditions: cited from earlier work
[1] = test system: WM35 human melanoma cells; assay: Taxol take-up into cells, HPLC; format: cell-based
Method: (§1) The tests were carried out using cell lines of human melanoma originating from three stages of development: WM35 of the radial growth phase, WM239A metastatic line and A375P metastasis to lungs, malignant line. For every measuring point, cells were grown in 4 100 mm coming dishes for each separate cell line. […] The analyses were repeated thrice in independent experiments, obtaining similar results. The results were averaged and reported in μM per a million of cells. The cells were counted using a Countess Invitrogen™ counter.
(§2) For determination of the amount of drug absorbed by the melanoma cells, chromatographic method was used. An HPLC system (Shimadzu Corporation Japan) consisting of two LC 10AT vp high-pressure pumps, a DGU-14A degasser, a CTO-10 ASvp oven for the column thermostating, an SIL-10 ADvp automatic sample feeder, and an SPD-M10 Avp diode detector, was used for the measurements. CLASS-VP 7.2.1 software was used.
(§3) The samples were separated on a Phenomenex Gemini −Nx 5μ C18 (4.6×150 mm i.d) column+guard column from Phenomenex (4×3 mm i.d.) with identical packing, at a temperature of 20° C. Eluant with the following composition: solvent A (water+0.1% trifluoroacetic acid [TFA]) and solvent B (acetonitrile 0.1% TFA) was used. The sample was separated in the following gradient system: 20% of solvent B to 30% of solvent B linearly for 15 min, next linearly to 34% for 6 min, linearly to 100% of solvent B for 24 min consecutively, then 10 min isocratically at 100% of solvent B. The column was recalibrated for […] in 20% of solvent B. 20-μl samples were introduced at a flowrate of 1.0 ml/min during 65 min with a UV-Vis detection at 220 nm.
(§4) The results were validated in two steps, by comparing the obtained Rt values to Rt values of standards, and by analysis of spectra of the separated compound and their comparison with spectra of the standards.
(§5) A frozen dry pellet was flushed with 650 μl of a solution (2/1 isopropanol, methanol+10% acetonitrile), then sonicated 3×15 s and frozen for 24 h. After thawing, the sample was shaken lightly for 30 min, 200 μl of physiological saline and 1083 μl of chloroform were added, stirring vigorously for 3×4 min. Separation of the organic phase from the aqueous phase was carried out by centrifugation at 10,000 revolutions/10 min. The collected chloroform phase were subjected to concentration under partial vacuum in a concentrator at 4° C., and to second drying under argon atmosphere. The precipitate was dissolved in 100 μl of methanol and separated by HPLC.
(§6) The tests were carried out using methods described in detail in Example 3.

[2] = test system: A375P human melanoma cells; assay: Taxol take-up into cells, HPLC; format: cell-based
Method: as §1, §2, §3, §4, §5, §6

[3] = test system: WM239A human melanoma cells; assay: Taxol take-up into cells, HPLC; format: cell-based
Method: as §1, §2, §3, §4, §5, §6

[4] = test system: WM35 human melanoma cells; assay: GSH/GSSG glutathione content and cell count (toxicity), RP-HPLC; format: cell-based; conditions: Docetaxel 0.5 μM, statin 20 μM
Method: (§7) Toxicities of the applied drugs were tested by a measurement of reduced and oxidised glutathione GSH/GSSG contents in the human melanoma cells. The glutathione contents were analysed by RP-HPLC. A method from prior art [references 1-4] was used.
(§8) The applied method consists in a reaction of GSH and GSSG with N-dinitrofluorobenzene, yielding N,S-dinitro-derivatives in the case of GSH and N,N-dinitro-derivatives in the case of GSSG. The elutions were carried out in a water-acetonitrile system, in accordance to the increasing acetonitrile concentration.
(§9) Determination of the levels of reduced glutathione, oxidised glutathione, and total glutathione were carried out using an RP-HPLC system from Shimadzu (SPD-M10VP photodiode matrix detector, class VP 7.2 software). The separations were carried out at a temperature of 20° C. using a Luna 5u C18 (Z) column (250 mm×4.6 mm, from Phenomenex), with a guard column with the same packing. Grade solvents were used as the eluant in the separations: acetonitrile/0.1% TFA and H2O/0.1% TFA. The separation was obtained in gradient elution, under a non-linear increase in the acetonitrile concentration from 20% to 100% during 90 minutes, at a flow of 1.0 ml/min. Samples with a volume of 20 μl were introduced into the column, filtered earlier using PTFE filters with a pore diameter of 0.2 μm (Supelco). The analysis of the compounds was carried out with UV-VIS detection at 365 nm. The cells were suspended in a 70% PCA/1 mM BPDS/0.9% NaCl solution in a 1:3 ratio, sonicated for 3×5 seconds (Bandelin SonoplusGM70) at a temperature of 4° C. and centrifuged under 1400 g at a temperature of 4° C. for 10 minutes. The prepared supernatant was used for the assays.
(§10) For identification of the tested compounds, proper standard solutions were used: GSH and GSSG.
(§11) All standard solutions were prepared in 10% PCA/1 mM BPDS, in redistilled water.
(§12) To determine the GSH and GSSG levels, calibration curves were used, prepared for standard solutions in the concentration range of 13 to 75 nmol/ml of the corresponding cell homogenate. The incubation mixture contained, respectively: supernatant originating from the cells, N-methyl-L-lysine (internal standard), 10% PCA/1 mM BPDS, 2 M KOH-2.4 M KHCO3 and 1% DNFB.
(§13) In the case of the calibration curve, the incubation mixture was prepared in an analogous way, but various volumes of standard solutions were added, and the final volume was controlled by the amount of the 10% PCA/1 mM BPDS added. After 24 h derivatization at room temperature, in darkness, the samples were acidified by adding 70% PCA and centrifuged for 2 minutes under 5600 g. The obtained supernatant was filtered through a PTFE-Supelco filter, introduced into the column, and 90-minute separation of the analysed compounds was carried out. The chromatograms were worked out identifying the compounds being separated according to their retention times, based on the standards available, and totalising the surface areas of the chromatographic peaks in the ranges of selected retention times.
(§14) Toxicities of the applied drugs were tested by a measurement of GSH/GSSG contents in the human melanoma cells. The glutathione contents were analysed by HPLC. A method drawn from the papers by [Bronowicka, Wróbel, Dominik] was used, described in detail in Example 2.

[5] = test system: A375P human melanoma cells; assay: as above; format: cell-based; conditions: Docetaxel 0.5 μM, statin 20 μM
Method: as §7, §8, §9, §10, §11, §12, §13, §14

[6] = test system: WM239A human melanoma cells; assay: as above; format: cell-based; conditions: Docetaxel 0.5 μM, statin 20 μM
Method: as §7, §8, §9, §10, §11, §12, §13, §14

human melanoma cells [7] = assay: Taxol take-up into cells, HPLC (conclusions over the lines); format: cell-based; conditions: for effect on take-up of taxanes into human melanoma cells: statin with docetaxel
[8] = test system: human melanoma cells (WM35, WM239A, A375P); assay: "crystal violet" proliferation assay; format: cell-based; conditions: statin 50-12.5 μM with docetaxel regimen at constant 0.5 μM
Method: The tests were carried out using cell lines of human melanoma originating from three stages of development: WM35 of the radial growth phase, WM239A metastatic line and A375P metastasis to lungs, malignant line.
The following statins were used in the studies: atorvastatin, fluvastatin, rosuvastatin, and pravastatin. The tests were carried out using cell lines of human melanoma originating from invasive stages of development: WM239A metastatic line and A375P P-metastasis to lungs, malignant line. […] Methodology according to that described in Example 1 was used. Additionally, the toxicity was analysed by investigations of reduced and oxidised glutathione contents. HPLC method was used.

[9] = cited from earlier work
human melanoma cells [10] = assay: GSH/GSSG toxicity (conclusions over the lines); format: cell-based; conditions: GSH/GSSG contents; statin 20 μM with Docetaxel 0.5 μM
Method: as §7, §8
Determination of the levels of reduced glutathione, oxidised glutathione, and total glutathione were carried out using an RP-HPLC system from Shimadzu (SPD-M10VP photodiode matrix detector, class VP 7.2 software). The separations were carried out at a temperature of 20° C. using a Luna 5u C18 (Z) column (250 mm×4.6 mm, from Phenomenex), with a guard column with the same packing. Grade solvents were used as the eluant in the separations: acetonitrile/0.1% TFA and H2O/0.1% TFA. The separation was obtained in gradient elution, under a non-linear increase in the acetonitrile concentration from 20% to 100% during 90 minutes, at a flow of 1.0 ml/min. […]
Toxicities of the applied drugs were tested by a measurement of GSH/GSSG contents in the human melanoma cells. The glutathione contents were analysed by HPLC. […]

[11] = water/n-octanol; cited from earlier work
human fibroblast cells = assay: "crystal violet" proliferation assay; conditions: simvastatin in various concentrations with TCM regimen
[12] = WM 35, cell count 35.4 mln, in the presence of various statins
[13] = cell count 22.5 mln, in the presence of various statins
[14] = relative to Docetaxel (T) = 100
[15] = cell count 34.2 mln, in the presence of various statins

CC(=O)O[C@H]1C(=O)[C@@]2(C)[C@H]([C@H](OC(=O)c3ccccc3)[C@]3(O)C[C@H](OC(=O)[C@H](O)[C@@H](NC(=O)c4ccccc4)c4ccccc4)C(C)=C1C3(C)C)[C@]1(OC(C)=O)CO[C@@H]1C[C@@H]2O [Paclitaxel, paclitaxel]
efficiency in treatment (ovarian cancer): 30% | efficiency in treatment (lung cancer): 20% | efficiency in treatment (breast cancer): 50%

CC(=O)O[C@@]12CO[C@@H]1C[C@H](O)[C@@]1(C)C(=O)[C@H](O)C3=C(C)[C@@H](OC(=O)[C@H](O)[C@@H](NC(=O)OC(C)(C)C)c4ccccc4)C[C@@](O)([C@@H](OC(=O)c4ccccc4)[C@H]21)C3(C)C [T, Docetaxel]
Taxol concentration [1, 12]: 57.08 µM | Taxol concentration per million of cells [1, 12]: 1.61 μM/million of cells | % content in cells ([1]; WM 35, relative to Docetaxel (T) = 100): 100% | Taxol concentration [2, 13]: 36 µM | Taxol concentration per million of cells [2, 13]: 1.60 μM/million of cells | % content in cells [2, 14]: 100% | Taxol concentration [3, 15]: 74.8 µM | Taxol concentration per million of cells [3, 15]: 2.18 μM/million of cells | % content in cells [3, 14]: 100% | GSH ([4]; 48 h): 1.12 nmol/million of cells | GSH/GSSG ([4]; 48 h): 0.59 | GSSG ([4]; 48 h): 1.88 nmol/million of cells | Total glutathione ([4]; 48 h): 4.8 nmol/million of cells | Cell count after 48 h ([4]; initial count 7.1 mln): 10.1 mln | GSH ([5]; 48 h): 0.94 nmol/million of cells | GSH/GSSG ([5]; 48 h): 6.78 | GSSG ([5]; 48 h): 0.14 nmol/million of cells | Total glutathione ([5]; 48 h): 1.22 nmol/million of cells | Cell count after 48 h ([5]; initial count 5.9 mln): 11.1 mln | GSH ([6]; 48 h): 1.07 nmol/million of cells | GSH/GSSG ([6]; 48 h): 6.53 | GSSG ([6]; 48 h): 0.16 nmol/million of cells | Total glutathione ([6]; 48 h): 1.40 nmol/million of cells | Cell count after 48 h ([6]; initial count 6.2 mln): 10.1 mln

CC(C)c1c(C(=O)Nc2ccccc2)c(-c2ccccc2)c(-c2ccc(F)cc2)n1CC[C@@H](O)C[C@@H](O)CC(=O)O [atorvastatin]
increase of Taxol content in melanoma cells, on average ([1]; WM35 (radial phase), in relation to the control with Taxol alone): two hundred percent | take-ups higher by (human melanoma cells [7]; melanoma cells from more advanced progression phases, vs Taxol alone): 30-45% | effect on take-up of taxanes into human melanoma cells (human melanoma cells [7]): selectively increases the taxanes take-up into human melanoma cells | effect on proliferation of human melanoma cells [8]: permanently inhibit synergistically

CC(C)n1c(/C=C/C(O)CC(O)CC(=O)O)c(-c2ccc(F)cc2)c2ccccc21 (centres unmarked) [fluvastatin]
solubility in water [9]: 0.46 µg/mL (≈ 1.12 µM)

CC[C@H](C)C(=O)O[C@H]1C[C@H](O)C=C2C=C[C@H](C)[C@H](CC[C@@H](O)C[C@@H](O)CC(=O)O)[C@H]21 [pravastatin]
solubility in water [9]: 19000 µg/mL (≈ 44800 µM) | toxicity against human melanoma cells (human melanoma cells [10]): is not toxic and it does not affect the malignant cells | Log P [11]: 0.59

CC(C)c1nc(N(C)S(C)(=O)=O)nc(-c2ccc(F)cc2)c1/C=C/[C@@H](O)C[C@@H](O)CC(=O)O [rosuvastatin]
effect on take-up of taxanes into human melanoma cells (human melanoma cells [7]): weaker effect | solubility in water [9]: 88.6 µg/mL (≈ 184 µM)

CCC(C)(C)C(=O)O[C@H]1C[C@@H](C)C=C2C=C[C@H](C)[C@H](CC[C@@H]3C[C@@H](O)CC(=O)O3)[C@H]21 [simvastatin]
effect on proliferation of normal cells (human fibroblast cells): does not affect the normal cells of human skin such as fibroblasts
